# Laboratory results published in patent US5444052A, “Amphotericin B composition with enhanced fungal activity” (Temple University of the Commonwealth System of Higher …, priority 1993, dated 1995).
# Where two headings read alike, the source gives them in different places.
# Tests used:
# C. neoformans = assay: Checkerboard minimum inhibitory concentration and synergy test (microtiter plate and agar plate analysis) on C. neoformans; format: cell-based, Cryptococcus neoformans; settings: for synergistic effect of DDG isomers on antifungal effect of amphotericin B / MIC: 24 h; for synergistic effect of DDG isomers on antifungal effect of amphotericin B: 37° C. (FIG. 11); for Fold MIC decrease: added compound with other compound at 1/2 MIC vs alone; for 1/2 MIC: half of MIC, concentration used in the combination; for MIC: Cryptococcus neoformans
# mice = settings: cited from earlier work
# laboratory animals = settings: fed in very high doses; cited from earlier work
# [1] = cited from earlier work
# neurons = settings: cited from earlier work
# phagocytes = settings: cited from earlier work
# C. albicans = assay: Checkerboard minimum inhibitory concentration and synergy test (microtiter plate and agar plate analysis) on Candida albicans; format: cell-based; settings: for Fold MIC decrease: added compound with other compound at 1/2 MIC vs alone; for 1/2 MIC: half of MIC, concentration used in the combination; for MIC: Candida albicans, 24 h
# human cells = settings: cited from earlier work
# erythrocytes = settings: by binding to cholesterol in the cell membrane, causing anemia; cited from earlier work
# [2] = test system: bacteria, rickettsiae, and viruses; settings: cited from earlier work
# [3] = intravenous, 1 mg/kg, cited from earlier work
# [4] = 25° C., agar plate, compound alone, read-out: MIC
# [5] = 25° C., microtiter plate, compound alone, read-out: MIC
# [6] = 37° C., agar plate, compound alone, read-out: MIC
# [7] = 37° C., microtiter plate, compound alone, read-out: MIC
# [8] = 25° C., agar plate, compound alone
# [9] = 25° C., microtiter plate, compound alone
# [10] = 37° C., agar plate, compound alone
# [11] = 37° C., microtiter plate, compound alone
compound,measurement,setting,value
"CCCCCCCCCCCCOC[C@@H](O)CO [sn-1-DDG, sn-1-O-dodecylglycerol]",synergistic effect of DDG isomers on antifungal effect of amphotericin B,C. neoformans,synergistic effect
"CCCCCCCCCCCCOCC(O)CO (racemic) [rac-1-DDG, rac-1-O-dodecylglycerol]",Fold MIC decrease,"C. neoformans; 25° C., agar plate",80
same,1/2 MIC,"C. neoformans; 25° C., agar plate",5 µg/mL
same,Fold MIC decrease,"C. neoformans; 25° C., microtiter plate",120
same,1/2 MIC,"C. neoformans; 25° C., microtiter plate",7.5 µg/mL
same,Fold MIC decrease,"C. neoformans; 37° C., agar plate",160
same,1/2 MIC,"C. neoformans; 37° C., agar plate",10 µg/mL
same,Fold MIC decrease,"C. neoformans; 37° C., microtiter plate",50
same,1/2 MIC,"C. neoformans; 37° C., microtiter plate",7.5 µg/mL
same,MIC,C. neoformans; [4],10 µg/mL
same,MIC,C. neoformans; [5],15 µg/mL
same,MIC,"C. neoformans; 25° C., microtiter plate, in presence of the other compound at 1/2 MIC (rac-1-DDG 7.5 or Amph. B 1.13 μg/ml), read-out: Resulting MIC of added compound",0.125 µg/mL
same,MIC,"C. neoformans; 25° C., agar plate, in presence of the other compound at 1/2 MIC (rac-1-DDG 5 or Amph. B 1.13 μg/ml), read-out: Resulting MIC of added compound",0.125 µg/mL
same,MIC,C. neoformans; [6],20 µg/mL
same,MIC,C. neoformans; [7],15 µg/mL
same,MIC,"C. neoformans; 37° C., agar plate, in presence of the other compound at 1/2 MIC (rac-1-DDG 10 or Amph. B 1.25 μg/ml), read-out: Resulting MIC of added compound",0.125 µg/mL
same,MIC,"C. neoformans; 37° C., microtiter plate, in presence of the other compound at 1/2 MIC (rac-1-DDG 7.5 or Amph. B 0.75 μg/ml), read-out: Resulting MIC of added compound",0.3 µg/mL
same,organ weights or body weights,"mice; 1 g/kg/day in feed, 4 weeks",did not significantly alter the organ weights or body weights of mice
same,linoleolyl moieties of total lipids,"mice; during feeding, 1 g/kg/day",concomitant decrease
same,saturated acyl moieties of total lipids,"mice; during feeding, 1 g/kg/day",marked increase
same,lipids of organs and tissues,mice; four weeks after removal of compound from diet,close resemblance to those of a control group
same,toxicity,laboratory animals,does not appear to be toxic
same,solubility in water,[1],relatively good solubility in water
same,neuronal growth,neurons,promote neuronal growth
same,stimulation of phagocytes to ingest foreign substances,phagocytes,stimulated
same,Fold MIC decrease,"C. albicans; 25° C., agar plate",80
same,1/2 MIC,"C. albicans; 25° C., agar plate",10 µg/mL
same,Fold MIC decrease,"C. albicans; 25° C., microtiter plate",36
same,1/2 MIC,"C. albicans; 25° C., microtiter plate",5 µg/mL
same,Fold MIC decrease,"C. albicans; 37° C., agar plate",40
same,1/2 MIC,"C. albicans; 37° C., agar plate",7.5 µg/mL
same,Fold MIC decrease,"C. albicans; 37° C., microtiter plate",40
same,1/2 MIC,"C. albicans; 37° C., microtiter plate",7.5 µg/mL
same,MIC,C. albicans; [4],20 µg/mL
same,MIC,C. albicans; [5],10 µg/mL
same,MIC,"C. albicans; 25° C., agar plate, in presence of the other compound at 1/2 MIC (rac-1-DDG 10 or Amph. B 1.13 μg/ml), read-out: Resulting MIC of added compound",0.25 µg/mL
same,MIC,"C. albicans; 25° C., microtiter plate, in presence of the other compound at 1/2 MIC (rac-1-DDG 5 or Amph. B 1 μg/ml), read-out: Resulting MIC of added compound",0.281 µg/mL
same,MIC,C. albicans; [6],15 µg/mL
same,MIC,C. albicans; [7],15 µg/mL
same,MIC,"C. albicans; 37° C., agar plate, in presence of the other compound at 1/2 MIC (rac-1-DDG 7.5 or Amph. B 1 μg/ml), read-out: Resulting MIC of added compound",0.375 µg/mL
same,MIC,"C. albicans; 37° C., microtiter plate, in presence of the other compound at 1/2 MIC (rac-1-DDG 7.5 or Amph. B 0.5 μg/ml), read-out: Resulting MIC of added compound",0.375 µg/mL
"CCCCCCCCCCCCOC[C@H](O)CO [Sn-3-DDG, sn-3-O-dodecylglycerol]",synergistic effect of DDG isomers on antifungal effect of amphotericin B,C. neoformans,synergistic effect
"CCCCCCCCCCCCOC(CO)CO [2-DDG, 2-O-dodecylglycerol]",synergistic effect of DDG isomers on antifungal effect of amphotericin B,C. neoformans,synergistic effect
Nc1nc(=O)[nH]cc1F [Fluorocytosine],toxicity to human cells,human cells,toxic to human cells
"C[C@@H]1[C@H](O)[C@@H](C)/C=C/C=C/C=C/C=C/C=C/C=C/C=C/[C@H](O[C@@H]2O[C@H](C)[C@@H](O)[C@H](N)[C@@H]2O)C[C@@H]2O[C@](O)(C[C@@H](O)C[C@@H](O)[C@H](O)CC[C@@H](O)C[C@@H](O)CC(=O)O[C@H]1C)C[C@H](O)[C@H]2C(=O)O [amphotericin B, [1R-(1R*,3S*, 5R*,6R*,9R*, 11R*,15S*,16R*,17R*,18S*,19E,21E,23E,25E,27E,29E,31E,33R*, 35S*,36R*,37S,)]-33-[(3-amino-3,6-dideoxy-β-D-mannopyranosyl)oxy]1,3,5,6,9,11,17,37-octahydroxy-15,16,18-trimethyl-13-oxo-14,39-dioxabicyclo-[33.3.1]nonatriaconta-19,21,23,25,27,29,31-heptaene-36-carboxylic acid]",Fold MIC decrease,"C. neoformans; 25° C., agar plate",72
same,1/2 MIC,"C. neoformans; 25° C., agar plate",1.13 µg/mL
same,Fold MIC decrease,"C. neoformans; 25° C., microtiter plate",48
same,1/2 MIC,"C. neoformans; 25° C., microtiter plate",1.12 µg/mL
same,1/2 MIC,"C. neoformans; 25° C., microtiter plate, listed as Amph. B",1.13 µg/mL
same,Fold MIC decrease,"C. neoformans; 37° C., agar plate",80
same,1/2 MIC,"C. neoformans; 37° C., agar plate",1.25 µg/mL
same,Fold MIC decrease,"C. neoformans; 37° C., microtiter plate",12.7
same,1/2 MIC,"C. neoformans; 37° C., microtiter plate",0.75 µg/mL
same,MIC,C. neoformans; [8],2.25 µg/mL
same,MIC,C. neoformans; [9],2.25 µg/mL
same,MIC,C. neoformans; [10],2.5 µg/mL
same,MIC,C. neoformans; [11],1.5 µg/mL
same,MIC,"C. neoformans; read-out: Resulting MIC of added compound, 25° C., 24 h, microtiter plate, in presence of the other compound at 1/2 MIC (rac-1-DDG 7.5 or Amph. B 1.13 μg/ml)",0.047 µg/mL
same,MIC,"C. neoformans; read-out: Resulting MIC of added compound, 25° C., agar plate, in presence of the other compound at 1/2 MIC (rac-1-DDG 5 or Amph. B 1.13 μg/ml)",0.0313 µg/mL
same,MIC,"C. neoformans; read-out: Resulting MIC of added compound, 37° C., agar plate, in presence of the other compound at 1/2 MIC (rac-1-DDG 10 or Amph. B 1.25 μg/ml)",0.0313 µg/mL
same,MIC,"C. neoformans; read-out: Resulting MIC of added compound, 37° C., microtiter plate, in presence of the other compound at 1/2 MIC (rac-1-DDG 7.5 or Amph. B 0.75 μg/ml)",0.118 µg/mL
same,damage to erythrocytes,erythrocytes,damages erythrocytes
same,"effect on bacteria, rickettsiae, and viruses",[2],no effect
same,solubility in water,[1]; crystalline,insoluble in water
same,Fold MIC decrease,"C. albicans; 25° C., agar plate",72
same,1/2 MIC,"C. albicans; 25° C., agar plate",1.13 µg/mL
same,Fold MIC decrease,"C. albicans; 25° C., microtiter plate",64
same,1/2 MIC,"C. albicans; 25° C., microtiter plate",1 µg/mL
same,Fold MIC decrease,"C. albicans; 37° C., agar plate",10.6
same,1/2 MIC,"C. albicans; 37° C., agar plate",1 µg/mL
same,Fold MIC decrease,"C. albicans; 37° C., microtiter plate",5.3
same,1/2 MIC,"C. albicans; 37° C., microtiter plate",0.5 µg/mL
same,MIC,C. albicans; [8],2.25 µg/mL
same,MIC,C. albicans; [9],2 µg/mL
same,MIC,C. albicans; [10],2 µg/mL
same,MIC,C. albicans; [11],1 µg/mL
same,MIC,"C. albicans; read-out: Resulting MIC of added compound, 25° C., agar plate, in presence of the other compound at 1/2 MIC (rac-1-DDG 10 or Amph. B 1.13 μg/ml)",0.0313 µg/mL
same,MIC,"C. albicans; read-out: Resulting MIC of added compound, 25° C., microtiter plate, in presence of the other compound at 1/2 MIC (rac-1-DDG 5 or Amph. B 1 μg/ml)",0.0313 µg/mL
same,MIC,"C. albicans; read-out: Resulting MIC of added compound, 37° C., agar plate, in presence of the other compound at 1/2 MIC (rac-1-DDG 7.5 or Amph. B 1 μg/ml)",0.188 µg/mL
same,MIC,"C. albicans; read-out: Resulting MIC of added compound, 37° C., microtiter plate, in presence of the other compound at 1/2 MIC (rac-1-DDG 7.5 or Amph. B 0.5 μg/ml)",0.188 µg/mL
same,peak serum concentrations,[3]; by end of infusion,2-3 micrograms/ml
same,serum concentration,[3]; for up to 24 hours after infusion,above 0.5 micrograms/ml
